Measured values reported in BindingDB's records for PubMed 2989489 (Eli Lilly, 1985).
Where “and” joins values, the source holds several entries; their conditions need not be identical. Identical values can stand only once.

Target: Sigma non-opioid intracellular receptor 1 (Rattus norvegicus, UniProt Q9R0C9)
Sequence (Q9R0C9 whole entry): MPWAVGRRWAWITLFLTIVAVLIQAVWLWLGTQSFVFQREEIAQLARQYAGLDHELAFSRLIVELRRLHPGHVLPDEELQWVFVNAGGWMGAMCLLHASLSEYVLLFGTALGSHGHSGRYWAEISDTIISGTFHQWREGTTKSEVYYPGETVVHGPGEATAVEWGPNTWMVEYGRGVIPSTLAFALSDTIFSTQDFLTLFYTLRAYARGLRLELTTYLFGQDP

| SMILES | Ki |
| --- | --- |
| Cc1cccc(C2(N3CCCCC3)CCCCC2)c1 [PCP,m-OH] | 8 nM and 77 nM |
| C[C@@H]1[C@@H]2Cc3ccc(O)cc3[C@@]1(C)CCN2CC1CC1 [(SSS)-12-Cyclopropylmethyl-13-methyl-12-aza-tricyclo[9.1.1.0*3,8*]trideca-3(8),4,6-trien-6-ol(cyclazocine)] | 69 nM and 125 nM |
| C=CCN1CC[C@]2(C)c3cc(O)ccc3C[C@@H]1[C@@H]2C [SKF 10,047 (-)] | 117 nM and 134 nM and 229 nM and 571 nM |
| c1ccc(C2(c3ccccc3)OCC(C3CCCCN3)O2)cc1 (racemic) | 23 nM and 141 nM |
| c1ccc(C2(N3CCCCC3)CCCCC2)cc1 | 29 nM and 135 nM |
| CCC12CCN(CC3(O)CC3)C(Cc3ccc(O)cc31)C2(C)C (stereo unspecified) | 229 nM |
| CCC1(c2ccccc2)OCC([C@H]2CCCCN2)O1 (stereo partly specified) | 82 nM and 152 nM |
| Oc1noc2c1CCNC2 [CAS_64603-91-4] | > 10000 nM |
| CC1(C2(C)COC(c3ccccc3)(c3ccccc3)O2)CCCCN1 (stereo unspecified) [CAS_4792-18-1] | 5500 nM and 1900 nM |
| Oc1ccc2c(c1)C13CCCCC1C(C2)N(CC1CC1)CC3 (stereo unspecified) [17-(cyclopropylmethyl)-17-azatetracyclo[7.5.3.0^{1,10}.0^{2,7}]heptadeca-2(7),3,5-trien-4-ol] | 226 nM and 287 nM |
| CN[C@@]1(c2ccccc2Cl)CCCCC1=O [2-(2-Chloro-phenyl)-2-methylamino-cyclohexanone(Ketamine)] | 440 nM and 1450 nM |
